Legend:
Assay type in all cases: cell-based
[1] = system: Human peripheral blood mononuclear cells (PBMC); assay: Cytokine induction in human cells (PBMC), Ella Simple Plex ELISA; settings: 21-24 hours, tested 0.01-30 micromolar; for MEC to Induce Cytokine, IFN-alpha: lowest concentration inducing IFN-alpha at least 2× negative control; for MEC to Induce Cytokine, IFN-gamma: lowest concentration inducing IFN-gamma at least 2× negative control; for MEC to Induce Cytokine, TNF-alpha: lowest concentration inducing TNF-alpha at least 2× negative control
Description: Whole blood was obtained from healthy human donors and collected by venipuncture into vacutainer tubes or syringes containing EDTA. Human peripheral blood mononuclear cells (PBMC) were purified from the whole blood by density gradient centrifugation. Histopaque 1077 (15 mL, Sigma-Aldrich) was transferred to 6×50 mL sterile polypropylene conical tubes. The Histopaque was overlayed with 15-25 mL of blood diluted 1:2 in Hank's Balanced Salts Solution (HBSS) (Gibco, Life Technologies, Grand Island, NY). The tubes were then centrifuged at 1370 rpm for 30 minutes at 20° C., with no brake (400λg, GH 3.8A Rotor).
The interface (buffy coat) containing the PBMC was collected and placed in a new sterile 50 mL conical polypropylene centrifuge tube. The PBMC were mixed with an equal volume of HBSS (about 20 mL from the interface and about 20 mL of HBSS), and then centrifuged at 1090 rpm, 10 minutes, 20° C., with brake (270λg, GH 3.8A Rotor). After completing centrifugation, the cells were resuspended in 2-3 mL ACK Red blood cell lysis buffer (ammonium chloride potassium solution, Gibco, Life Technologies) and incubated for 2-5 minutes at 20° C. Next, HBSS (40 mL) was added to the cells, and the sample was centrifuged at 270×g for 10 minutes at 20° C. The supernatant was decanted, and the cell pellet was resuspended in 5 mL AIM V Medium (Gibco, Life Technologies). Cell aggregates and debris were removed by filtering the cell solution through a BD Falcon 70 micron nylon cell strainer (BD Biosciences, San Jose, CA).
The number of viable cells was determined by counting with a Moxi Z instrument (ORFLO Technologies, Ketchum, ID) or by using a hemacytometer. For determining cell viability with a hemacytometer, the cells were diluted 1/10 in 0.4% trypan blue and HBSS (specifically, 50 microliter of trypan blue+40 microliter of HBSS+10 microliter of cell solution were added to a microfuge tube and mixed). Ten microliters of the diluted cells were then applied to the hemacytometer, and the number of viable PBMC were determined by microscopy.
The PBMC sample was then resuspended in 96-well plates at a concentration of 8×10^5 cells/well in 0.1 mL of AIM-V medium. Each compound was solubilized in DMSO to create a 3 mM stock solution. The stock solution was then further diluted with AIM-V medium to prepare the serial dilutions. The diluted compound (100 microliters) was then transferred to the PBMCs to produce testing sets with final compound concentrations of 30, 10, 3.3, 1.1, 0.37, 0.12, 0.04, 0.01 micromolar. The plates also had both positive and negative controls. The negative control wells contained only AIM-V medium with no example compound. The positive control wells contained a control set of imiquimod serially diluted to concentrations of 30, 10, 3.3, 1.1, 0.37, 0.12, 0.04, 0.01 micromolar. The concentrations used in the control set were selected to match the concentrations used in the testing set. The plates were then cultured at 37° C./5% CO2 for 21-24 hours. Cell-free supernatants were harvested by centrifuging the 96-well plates at 2100 rpm, 23° C. for 10 minutes. Approximately 160 microliters of the supernatant was then stored in a NUNC 96-well plate, covered with the compression cap and stored at −80° C. until the cytokine analysis was done.
Cytokine levels (human IFN-alpha multisubtype, human IFN-gamma, and human TNF-alpha) were measured in picograms/mL by Ella Simple Plex ELISA (ProteinSimple, San Jose, CA) according to the manufacturer's instructions.
Specifically, the minimum effective concentration of each compound (micromolar) was determined as the lowest concentration of the compound that induced a measured cytokine response at a level ([…]) that was at least 2× greater than that observed with the negative control wells.

human TLR7 = molecular target: T1, human TLR7 (Homo sapiens, UniProt Q9NYK1); assay: TLR activation and specificity, HEK-BLUE-hTLR7 SEAP reporter cells; settings: 16-20 hours, lowest concentration giving SEAP response at least 2× vehicle control, tested 0.01-30 micromolar
T1 construct: host or cells: HEK293 (HEK-BLUE-hTLR7)
T1 sequence (Q9NYK1 27-1049): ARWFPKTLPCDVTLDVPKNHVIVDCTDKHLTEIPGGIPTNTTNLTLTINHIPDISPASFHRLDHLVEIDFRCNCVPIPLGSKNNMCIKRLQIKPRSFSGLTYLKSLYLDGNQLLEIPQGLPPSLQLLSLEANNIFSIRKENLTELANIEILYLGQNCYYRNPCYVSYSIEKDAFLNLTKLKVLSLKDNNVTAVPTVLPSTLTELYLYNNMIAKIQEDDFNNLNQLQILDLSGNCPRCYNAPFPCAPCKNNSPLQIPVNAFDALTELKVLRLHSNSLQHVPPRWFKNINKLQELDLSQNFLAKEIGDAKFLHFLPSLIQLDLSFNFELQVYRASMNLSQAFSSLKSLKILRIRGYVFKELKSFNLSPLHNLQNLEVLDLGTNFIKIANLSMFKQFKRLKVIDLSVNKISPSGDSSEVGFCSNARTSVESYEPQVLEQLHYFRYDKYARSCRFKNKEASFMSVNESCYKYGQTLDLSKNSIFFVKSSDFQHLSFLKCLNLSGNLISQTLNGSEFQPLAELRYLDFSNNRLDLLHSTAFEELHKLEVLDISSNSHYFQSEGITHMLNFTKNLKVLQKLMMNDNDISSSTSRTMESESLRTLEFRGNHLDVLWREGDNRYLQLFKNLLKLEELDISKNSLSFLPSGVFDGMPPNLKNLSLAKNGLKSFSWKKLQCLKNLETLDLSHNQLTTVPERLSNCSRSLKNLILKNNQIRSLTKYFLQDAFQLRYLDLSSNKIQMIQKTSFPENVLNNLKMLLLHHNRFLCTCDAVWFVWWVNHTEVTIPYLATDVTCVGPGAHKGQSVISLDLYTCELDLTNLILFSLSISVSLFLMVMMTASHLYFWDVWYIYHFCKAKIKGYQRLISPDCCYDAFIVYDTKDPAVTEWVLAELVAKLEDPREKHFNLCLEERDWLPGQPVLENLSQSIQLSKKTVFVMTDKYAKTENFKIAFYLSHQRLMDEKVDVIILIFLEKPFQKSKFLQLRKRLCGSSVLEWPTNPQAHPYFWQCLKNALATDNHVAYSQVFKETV
Description: (§1) HEK-BLUE-hTLR7 or hTLR8 reporter cells were obtained from InvivoGen, San Diego, CA. According to the manufacturer's description, these reporter cells were prepared by co-transfection of HEK293 cells with an inducible secreted embryonic alkaline phosphatase (SEAP) reporter gene and either the human TLR7 or TLR8 gene. The SEAP reporter gene was placed under the control of an IFN-β minimal promoter fused to five NF-κB and AP-1-binding sites. In the presence of a TLR ligand, activation of NF-κB and AP-1 occurs, resulting in a corresponding increase in SEAP levels.
(§2) In the assay, the HEK cells were grown and maintained using standard cell culture techniques in a growth medium that contained Dulbecco's Modified Eagle Medium (ThermoFisher Scientific Incorporated, Waltham, MA) supplemented with 1% penicillin/streptomycin and 10% heat-inactivated Gibco fetal bovine serum (ThermoFisher Scientific). Each compound was solubilized in DMSO to create a 3 mM stock solution. The stock solution was then further diluted with the growth medium to prepare serial dilutions. Each test compound was tested at a concentration of 30, 10, 3.3, 1.1, 0.37, 0.12, 0.04, and 0.01 micromolar using a 96-well format with 5×10^4 cells and 200 microliters of growth medium per well.
(§3) For each compound, hTLR7, hTLR8, and their respective null control HEK cells were screened. DMSO serially diluted into the growth medium served as the vehicle control. Cell culture supernatants containing the SEAP reporter were collected after an incubation period of 16-20 hours in a cell culture incubator (37° C. and 5% CO2), and either analyzed immediately or stored at −80° C. SEAP levels were measured using the colorimetric enzyme assay (QUANTI-BLUE (InvivoGen) according to manufacturer's instructions.
(§4) Specifically, the minimum effective concentration of each compound (micromolar) was determined as the lowest concentration of the compound that produced a SEAP expression response at least 2× greater than that observed with the vehicle control wells.

human TLR8 = molecular target: T2, human TLR8 (Homo sapiens, UniProt Q9NR97); assay: TLR activation and specificity, HEK-BLUE-hTLR8 SEAP reporter cells; settings: 16-20 hours, lowest concentration giving SEAP response at least 2× vehicle control, tested 0.01-30 micromolar
T2 construct: host or cells: HEK293 (HEK-BLUE-hTLR8)
T2 sequence (Q9NR97 27-1041): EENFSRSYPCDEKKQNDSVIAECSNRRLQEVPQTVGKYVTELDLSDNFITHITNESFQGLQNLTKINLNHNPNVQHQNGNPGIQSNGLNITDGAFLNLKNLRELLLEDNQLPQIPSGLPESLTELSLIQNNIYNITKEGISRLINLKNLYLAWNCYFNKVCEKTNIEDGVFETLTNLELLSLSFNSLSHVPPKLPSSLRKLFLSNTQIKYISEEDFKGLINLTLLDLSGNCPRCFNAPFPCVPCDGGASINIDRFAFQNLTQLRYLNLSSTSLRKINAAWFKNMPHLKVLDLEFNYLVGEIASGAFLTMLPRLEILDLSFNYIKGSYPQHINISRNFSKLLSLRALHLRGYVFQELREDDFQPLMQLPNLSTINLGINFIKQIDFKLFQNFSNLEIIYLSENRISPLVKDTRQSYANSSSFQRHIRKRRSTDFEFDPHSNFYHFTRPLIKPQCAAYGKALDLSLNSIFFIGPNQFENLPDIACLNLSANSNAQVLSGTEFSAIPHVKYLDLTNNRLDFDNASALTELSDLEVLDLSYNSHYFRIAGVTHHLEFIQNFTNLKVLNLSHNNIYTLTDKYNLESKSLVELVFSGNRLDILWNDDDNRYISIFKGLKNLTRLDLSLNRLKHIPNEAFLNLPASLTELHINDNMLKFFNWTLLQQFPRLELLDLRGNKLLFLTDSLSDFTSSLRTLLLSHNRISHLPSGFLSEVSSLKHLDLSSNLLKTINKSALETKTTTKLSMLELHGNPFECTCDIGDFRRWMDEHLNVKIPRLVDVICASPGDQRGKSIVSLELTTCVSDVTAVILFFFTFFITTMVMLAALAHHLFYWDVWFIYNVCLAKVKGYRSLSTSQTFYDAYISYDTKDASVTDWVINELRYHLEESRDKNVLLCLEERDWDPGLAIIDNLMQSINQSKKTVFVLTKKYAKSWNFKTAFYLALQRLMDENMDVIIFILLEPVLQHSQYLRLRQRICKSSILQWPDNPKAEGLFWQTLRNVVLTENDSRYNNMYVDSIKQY
Description: as §1, §2, §3, §4

Structure (SMILES) | MEC to Induce Cytokine, IFN-alpha [1] [µM] | MEC to Induce Cytokine, IFN-gamma [1] [µM] | MEC to Induce Cytokine, TNF-alpha [1] [µM] | MEC to Produce TLR Activation, TLR 7 (human TLR7) [µM] | MEC to Produce TLR Activation, TLR 8 (human TLR8) [µM]
CCOC[C@H](Cc1ccc(OCCN=[N+]=[N-])cc1)n1cnc2c(N)nc3ccccc3c21 [Example 1, (S)-1-(1-(4-(2-azidoethoxy)phenyl)-3-ethoxypropan-2-yl)-1H-imidazo[4,5-c]quinolin-4-amine] | ≤0.01 | ≤0.01 | ≤0.01 | ≤0.01 | 10
CCOC[C@H](Cc1ccc(OCCn2cc(-c3ccccc3)nn2)cc1)n1cnc2c(N)nc3ccccc3c21 [Example 2, (S)-1-(1-ethoxy-3-(4-(2-(4-phenyl-1H-1,2,3-triazol-1-yl)ethoxy)phenyl)propan-2-yl)-1H-imidazo[4,5-c]quinolin-4-amine] | ≤0.01 | ≤0.01 | ≤0.01 | ≤0.01 | 3.3
CCOC[C@H](Cc1ccc(OCCCCCCCCCCCN=[N+]=[N-])cc1)n1cnc2c(N)nc3ccccc3c21 [Example 3, (S)-1-(1-(4-((11-azidoundecyl)oxy)phenyl)-3-ethoxypropan-2-yl)-1H-imidazo[4,5-c]quinolin-4-amine] | 3.3 | >30 | 1.1 | 1.1 | >30
CCOC[C@H](Cc1ccc(OCCCCCCCCCCCn2cc(-c3ccccc3)nn2)cc1)n1cnc2c(N)nc3ccccc3c21 [Example 4, (S)-1-(1-ethoxy-3-(4-((11-(4-phenyl-1H-1,2,3-triazol-1-yl)undecyl)oxy)phenyl)propan-2-yl)-1H-imidazo[4,5-c]quinolin-4-amine] | 3.3 | 10 | 3.3 | 3.3 | 3.3

Reference: patent publication US20250129082A1, “N-1 Triazole Substituted Imidazoquinolines, Conjugates Thereof, and Methods” (Solventumn Intellectual Properties Company, priority 2021, published 2025)
